Assay results published in PMC12040169 (PLOS Biology, 2025).

Test: in vitro
Conditions: human, hela cells, % viability

| SMILES | viability at 28.5 h, 10 µM [%] | viability at 28.5 h, 10 µM (bulk resorufin, single well) [%] |
| --- | --- | --- |
| COC(=O)COc1ccc(S(=O)(=O)NCc2ccc3c(c2)OCO3)cc1C [CBK267172] | 90.3 | – |
| O=C(c1ccco1)N1CCN(c2ccc(-c3ccc(F)c(Cl)c3)cn2)CC1 [CBK037683] | 93.9 | – |
| NS(=O)(=O)c1ccc(NC(=S)N2CCN(CCO)CC2)cc1 [CBK265891] | 87.5 | – |
| O=C(c1ccc([N+](=O)[O-])cc1)C12CN3CN(CN(C3)C1)C2 [CBK011238] | 87.1 | – |
| Cc1nccn1CC1CCCN(Cc2nc3ccccc3[nH]2)C1 (stereo not shown) [CBK281619] | 83.3 | – |
| CC(=O)[C@H]1C[C@@H](CC(=O)Nc2cc3cccnc3nc2Cl)C1(C)C [CBK091351] | 95.7 | – |
| Cc1ccc(C(=O)N2CCN(Cc3cc(=O)n4ccsc4n3)CC2)cn1 [CBK305700] | 89.4 | – |
| O=C(Cc1ccccn1)N1CCC(c2cccc(Cc3ccc(C(F)(F)F)cc3)n2)CC1 [CBK286224] | 101 | – |
| Cc1nn(C(C)C(=O)Nc2cc(C(F)(F)F)ccc2Cl)c(C)c1[N+](=O)[O-] (stereo not shown) [CBK268697] | 88.5 | – |
| CN(c1ccccc1)S(=O)(=O)c1cccc(NC(=O)Cc2csc(-c3ccco3)n2)c1 [CBK297792] | 75.9 | – |
| Cn1c(N2CCOCC2)cc(=O)c2ccccc21 [CBK007775] | 93.7 | – |
| O=C(O)/C=C/C(=O)N1N=C(c2ccc(F)cc2)CC12C(=O)Nc1ccccc12 (stereo not shown) [CBK286747] | 88.9 | – |
| COc1ccc(-c2ccc(C(=O)N(C)C)c(N(C)C(C)=O)n2)cc1 [CBK076500] | 99.1 | – |
| Cc1nc2ccccc2nc1CSc1nnc(Cc2ccccc2)n1-c1ccccc1 [CBK268360] | 104 | – |
| CCC1c2cccn2CCN1C(=O)c1cc(-c2ccccn2)n[nH]1 (stereo not shown) [CBK283224] | 102 | – |
| CCCCc1cc(C[C@@H]2C[C@H](NC(=O)N3CCOCC3)C2(C)C)no1 [CBK289257] | 87.9 | – |
| CC(=O)c1ccc(-c2nc(NC(=O)CC3OC(=O)c4ccccc43)cnc2-c2cccc(C)c2)s1 (stereo not shown) [CBK037152] | 112 | – |
| O=C(CC1(O)C(=O)N(CCc2ccccc2)c2ccc(Br)cc21)c1ccncc1 (stereo not shown) [CBK293976] | 90.2 | – |
| CC(=O)c1ccc(NC(=O)NC[C@H]2C[C@@H]3CC[N@]2C[C@@H]3CN2CCCCC2)cc1 [CBK288766] | 92.3 | – |
| O=C(O)CNC(=O)/C(=C/c1ccc(Br)cc1)NC(=O)c1ccc(Br)o1 [CBK262537] | 80.1 | – |
| CCn1c2ccccc2c2cc(/C=N/N3CCN(c4ccccc4OC)CC3)ccc21 [CBK101168] | 92.6 | – |
| Cn1c(=O)c2c(nc(Oc3ccccc3Cl)n2Cc2cccc(C(F)(F)F)c2)n(C)c1=O [CBK265940] | 89.7 | – |

| SMILES | viability at 28.5 h, 10 µM [%] | viability at 28.5 h, 10 µM (bulk resorufin, single well) [%] |
| --- | --- | --- |
| Nc1ccccc1Sc1ccc(C(F)(F)F)cn1 [CBK093782] | 91.9 | – |
| N#Cc1ccccc1C(=O)N(CCO)Cc1ccccc1 [CBK304844] | 89.8 | – |
| CC(NS(=O)(=O)c1ccc(CCC(=O)N2CCN(C)CC2)cc1)c1ccccc1 (stereo not shown) [CBK266868] | 91.7 | – |
| CC(C)(C)C1CCc2c(sc(NC(=S)NC(=O)c3cc4ccccc4o3)c2C(N)=O)C1 (stereo not shown) [CBK268635] | 95 | – |
| Cc1cccnc1C(NC(=O)C1CCN(CCOc2ccccc2)CC1)c1ccc(F)cc1 (stereo not shown) [CBK147892] | 91.8 | – |
| O=C(Nc1nc(-c2cccnc2)cs1)c1ccccc1 [CBK287569] | 91.3 | – |
| O=C(NCCN1CCOCC1)C1CCN(C(=O)c2cccc(F)c2)CC1 [CBK304627] | 85.8 | – |
| Cc1cc(C(=O)NCCC(=O)O)c2ccccc2n1 [CBK286573] | 86 | – |
| Cc1cc(CN2CCC(N(C)Cc3nnc(C)n3C)C2)no1 (stereo not shown) [CBK305088] | 96.6 | – |
| FC(F)(F)c1ccnc(OCCN2CCNCC2)c1 [CBK113459] | 97.4 | – |
| Cc1nn(C)cc1-c1cncn1CCn1nc(C)c(C)c1C [CBK281785] | 108 | – |
| Cn1nnc(NC(=O)COc2ccc(C3CCCCC3)cc2)n1 [CBK266442] | 95.9 | – |
| Cc1cccc2cnc(C3CCN(C(=O)CCc4ccno4)CC3)cc12 [CBK285197] | 81 | – |
| CC1(C)CCCN(Cc2nnnn2-c2ccc(S(C)(=O)=O)cc2)C1 [CBK306181] | 91.7 | – |
| O=C(c1c(F)cccc1F)N1CCC(O)(c2ccccn2)CC1 [CBK283670] | 105 | – |
| O=C(CCN1CCCC12CCc1[nH]c3ccccc3c1C2)c1ccc(F)cc1 (stereo not shown) [CBK084593] | 92.6 | – |
| COc1cccc2cc(C(=O)NCc3ccc4c(c3)OCO4)oc12 [CBK149797] | 90.9 | – |
| O=[N+]([O-])c1ccc2c(/C=N/c3ccc(-c4nc5ccccc5s4)cc3)c(O)ccc2c1 [CBK261483] | 92.3 | – |
| CC1CN(S(=O)(=O)C(C)C)CCC1NCc1ccncc1 (stereo not shown) [CBK304870] | 89.6 | – |
| CC1CCc2nn(CCNC(=O)c3ccco3)c(=O)cc2C1 (stereo not shown) [CBK284481] | 95.2 | – |
| COc1ccc(C2=NN(c3ccccc3)C(c3cn(-c4ccccc4)nc3-c3ccccc3)C2)cc1 (stereo not shown) [CBK263230] | 88.9 | – |
| Cc1ccc(CN2C[C@H]3C(=O)Nc4ccccc4C(=O)N[C@@]3(C)C2)o1 [CBK284706] | 95.7 | – |

| SMILES | viability at 28.5 h, 10 µM [%] | viability at 28.5 h, 10 µM (bulk resorufin, single well) [%] |
| --- | --- | --- |
| CC(=O)N(Cc1ccccc1)c1ccc(C(=O)O)cc1 [CBK286882] | 102 | – |
| O=C1N(CCc2ccccc2)CC=CCC12CN(Cc1ccc3[nH]ccc3c1)CCO2 (stereo not shown) [CBK286130] | 105 | – |
| O=C(CCCc1ccccc1)Nc1ccccc1C(=O)O [CBK265516] | 97.4 | – |
| COc1ccc(CN(C)c2c(C)nc3c(OCC(=O)C(C)(C)C)cccn23)cc1 [CBK147458] | 100 | – |
| COc1ccccc1N1CCN(c2nccc3sc(S(=O)(=O)NC4CCC4)cc23)CC1 [CBK038248C] | 87.7 | – |
| O=C(COc1ccccc1[N+](=O)[O-])Nc1ccc(Cl)c(-c2nc3ncccc3o2)c1 [CBK268811] | 88.8 | – |
| COc1cc(OC)c(NC(=O)c2c(-c3ccccc3)noc2C)cc1Cl [CBK268167] | 101 | – |
| Cc1cc(COC(=O)Nc2ccc(Cl)cc2)no1 [CBK086560] | 93.4 | – |
| CC(C)OC(=O)Cn1c(C2CCNCC2)cc2cccnc21 [CBK285075] | 99.9 | – |
| O=C(c1ccc(F)cc1)N1CCC(Oc2nccnc2OCc2ccc(Cl)c(Cl)c2)CC1 [CBK160721] | 85.9 | – |
| Cc1c(C(=O)N(C)CC(F)(F)F)nnn1-c1ccc(F)cc1 [CBK282214] | 89.8 | – |
| COc1ccccc1-c1cnc2[nH]c(=O)n(CC(C)(C)CO)c2n1 [CBK064690] | 90.2 | – |
| c1ccc(NCCOc2nccnc2N2CCCC2)cc1 [CBK115814] | 87.9 | – |
| COCCN(CCOC)C(=O)Nc1ccc(F)c(NC(C)=O)c1 [CBK307705] | 98.2 | – |
| CC(C)(C)c1ccc(S(=O)(=O)N2CCCC[C@H]2COC(=O)c2nccnc2C(=O)O)cc1 [CBK200065] | 91.6 | – |
| COc1ccc2c(c1)COC1(CCN(C(=O)Nc3ccc(N(C)C)cc3)CC1)O2 [CBK060753] | – | 98.8 |
| NC(=O)C1CCCN(S(=O)(=O)c2ccc(S(N)(=O)=O)cc2)C1 (stereo not shown) [CBK266312] | 96.2 | – |
| CN1CCc2c(sc3nc(SCc4ccc(Cl)c(Cl)c4)n(-c4ccccc4)c(=O)c23)C1 [CBK263706] | 94.2 | – |
| O=C(NCc1nc2ccccc2[nH]1)c1cc(Br)cnc1NCCOc1ccccc1 [CBK076220] | 104 | – |
| COc1ccc(-c2cc(C(=O)Nc3ccc4ncccc4c3)cnc2-c2ccccc2)cc1 [CBK036623] | 106 | – |
| c1cnc(N2CCCC2)c(OC2CCOC2)n1 (stereo not shown) [CBK115891] | 91.2 | – |
| O=C(c1c(F)cccc1F)N1C2CCC1c1snnc1C2 (stereo not shown) [CBK284990] | 91.5 | – |

| SMILES | viability at 28.5 h, 10 µM [%] | viability at 28.5 h, 10 µM (bulk resorufin, single well) [%] |
| --- | --- | --- |
| COC(=O)c1c(NC(=O)c2ccccc2)csc1C [CBK026684] | 90.3 | – |
| CCCN1C(=O)[C@@H]2[C@@H](CCN2C(=O)C(=O)O)N(Cc2cccs2)C1=O [CBK289277] | 93.1 | – |
| COc1nc2ccn(CCN3C(=O)CCC3=O)c(=O)c2cc1C#N [CBK307422] | 94.7 | – |
| COc1cncc(-c2cnc(N)c(N[C@@H](CO)C(C)C)n2)c1 [CBK063734] | 106 | – |
| O=C(CSCCO)Nc1cccc2ccccc12 [CBK265623] | 85.4 | – |
| CCCc1nc(C(=O)NC2CC(=O)N(CCc3ccc(F)cc3)C2)cs1 (stereo not shown) [CBK306548] | 105 | – |
| CCOC(=O)CN/C(=N/O)c1c(Cl)cccc1Cl [CBK022374] | 99.6 | – |
| Nc1ccn(C2OC(CO)C(O)C2O)c(=O)n1 (stereo not shown) [CBK024684] | 108 | – |
| OCC1CCCN1c1nccnc1-c1cccnc1 (stereo not shown) [CBK089049] | 101 | – |
| CC(=O)c1ccc(-c2nc(-c3occc3C=O)cnc2N)cc1 [CBK064081] | 89.9 | – |
| O=C(Nc1ccc(Cc2ccncc2)cc1)c1ccc(-c2cc3ccccc3oc2=O)cc1 [CBK268952] | 121 | – |
| O=C1NCC2(C/C=C/CCOc3ccccc31)CCN(Cc1ccccn1)CC2 [CBK292159] | 84.2 | – |
| CC(=O)c1ccc(S(=O)(=O)NCC2CC2)cc1 [CBK044440] | 100 | – |
| FC(F)(F)C1(NC2(C(Cl)(Cl)Cl)Oc3ccccc3O2)Oc2ccccc2O1 [CBK265544] | 90.5 | – |
| CCOc1ccc(OC(=O)c2ccc(OC(F)(F)F)cc2)cc1 [CBK149207] | 95.8 | – |
| Cc1cc(C(C)(C)C)ccc1OCCNCCN [CBK265097G] | 91.3 | – |
| Cc1ccc2c(c1)C(C[C@H]1CN(C(=O)c3ccco3)CC[C@H]1CC(=O)O)=NCC2 [CBK289162] | 79.1 | – |
| O=C(c1ncccc1O)N1CC(O)CC1c1cc(F)ccc1F (stereo not shown) [CBK306452] | 97.9 | – |
| CCCC(=O)N1CCn2c(nnc2-c2cncc(Br)c2)C1 [CBK304761] | 93.4 | – |
| Nc1ncc(-c2cccc(O)c2)nc1N1CCC(C(=O)O)CC1 [CBK063405] | 85.3 | – |
| O=C(NCCCOc1ccccc1)N1CCN(S(=O)(=O)c2ccc(C(F)(F)F)cc2)CC1 [CBK296686] | 87.9 | – |
| Cc1sc2nc(N)c(C(=O)NC(C)C)cc2c1C [CBK269259] | 115 | – |
